Assay results reported in patent publication US20240344103A1, “IN VITRO MODELS FOR ESTIMATING DRUG DOSAGE” (Hennepin Healthcare Research Institute, priority 2021, published 2024).
Entries after “also recorded” stand apart in the source; their conditions may differ. Like-named read-outs stand apart in the source and are kept apart here.

Tests used:
stool microbiota [1] = assay: In vitro anaerobic culture of patient stool microbiome with MPA or MPAG, HPLC-MS/MS of supernatant; type: in vitro ADME, human
Description: A human microbiome sample from stool was collected from a patient between days 15-45 post-transplant, during their 12-hour pharmacokinetic visit. Prior to the initiation of the culture of microbiome stool sample, in the MPA arm of the experiment, a 1 mg/mL stock solution of MPA was diluted to […] in thirteen anaerobic culture tubes by adding 0.7 mL of the stock MPA solution to 6.3 mL of YCFA (Yeast extract-Casein hydrolysate-fatty acids) medium broth. Likewise, for the MPAG arm of the experiment, a […] stock solution of MPAG was diluted to […] in thirteen anaerobic culture tubes by adding 0.7 mL of the stock MPAG solution to 6.3 mL of YCFA (Yeast extract-Casein hydrolysate-fatty acids) medium broth.
Stool aliquots of ˜0.5 g were incubated in separate YCFA tubes containing MPA or MPAG for six hours, 24 hours, or 48 hours in separate tubes, at 37° C. under anaerobic conditions (FIG. 2). All aliquots were collected at each timepoint in triplicate. Aliquots were also collected from MPA and MPAG tubes without any stool samples at zero, six hours, 24 hours, and 48 hours to serve as controls for this experiment.
After incubation, samples were […] at 16,000×g for 10 minutes, and the supernatant was collected and stored at −80° C. prior to high performance liquid chromatography-tandem mass spectrometry (HPLC-MS/MS) analysis. The supernatant was assessed for the presence and concentration of total MPA and MPAG using a validated mass spectrometry assay. Total MPA and MPAG concentration were determined based on certified analytical reference standards of […] of MPA and MPAG. These analytical reference standards were used as internal standards during the mass spectrometry assay.

[2] = 12-hour MPA pharmacokinetic profile in kidney transplant patients taking MMF; type: in vivo, human; conditions: five kidney transplant participants on MMF
Description: The following example used a stool sample of a kidney transplant patient who was on a steady state dose of 1 gram of mycophenolate mofetil (MMF) twice a day (FIG. 1). This patient underwent intensive pharmacokinetic sampling over 12 hours to assess enterohepatic recirculation (EHR) carefully and accurately. Once participants reach a steady state dose between days 15-45 post-transplant, fourteen blood samples were obtained at the time the morning MMF does was administered and at 30 minutes, one hour, two hours, three hours, four hours, five hours, six hours, seven hours, eight hours, nine hours, ten hours, 11 hours, and 12 hours following the morning MMF dose. The sampling strategy assured capture of the secondary peak and EHR characteristics.
Five kidney transplant recipients taking MMF and tacrolimus as maintenance immunosuppression had their six-hour MPA levels assessed in the in vitro assay exposing microbiome to MPAG (FIG. 5). These patients also underwent an extensive 12-hour MPA pharmacokinetic (PK) profile (FIG. 6), and the stool samples were collected at the time of the PK profile. The percent EHR in these kidney transplant recipients was defined as [MPA AUC6-12 hour]/[AUC0-12 hour]×100 as a measure of their in vivo EHR. The correlation coefficient between the six-hour MPA level from the in vitro model with percentage EHR was 0.82 (95% CI—0.21 to 0.98, P=0.08).

Gut Microbiota = conditions: cited from earlier work
stool microbiota [3] = assay: In vitro anaerobic culture of patient stool microbiome with MPA or MPAG, HPLC-MS/MS of supernatant; type: in vitro ADME, human; conditions: stool frozen at −80° C. for mean 312 days, thawed at 4° C. overnight, assay at 37° C.; six and 24 hours
[4] = effect of gut microbiome on the compound

Molecule | Effect of microbial modification (Gut Microbiota; [4]) | Gut Microbiota Modification (Gut Microbiota) | further results
COc1c(C)c2c(c(O)c1C/C=C(\C)CCC(=O)O)C(=O)OC2 [MPA, mycophenolic acid] | – | – | MPA concentration after incubation with stool bacteria compared to control samples (stool microbiota [1]; MPA arm, one kidney transplant patient stool, YCFA, 37° C., anaerobic, six, 24 and 48 hours, controls without stool): did not change; also recorded: no difference was detected; MPA concentration relative to amount expected from full MPAG conversion (stool microbiota [1]; MPAG arm, one patient stool, 24 and 48 hours): higher than the amount expected if all MPAG is converted to MPA; MPA concentration in MPAG tubes incubated with stool microbiome samples (stool microbiota [1]; MPAG arm, starting at six hours, upward trend at 24 and 48 hours): increase; Release of MPA bioaccumulated in microbiome cells on addition of MPAG (stool microbiota [1]; in vitro assay, MPAG substrate added): led to the release of MPA that had accumulated inside the cells; also recorded: promotes the release of bioaccumulated MPA; % EHR (MPA AUC6-12 hour/AUC0-12 hour×100), mean [2]: 46%; % EHR (MPA AUC6-12 hour/AUC0-12 hour×100), range [2]: 41-60%; mean MPA trough ([2]; SD ±1.66): 3.5 mg/L; mean dose normalized MPA AUC0-12 ([2]; ±0.02): 0.07 mg·h/L
CN(C)C(=N)N=C(N)N [Metformin] | Activation [2, 11] | – | –
Nc1nc(F)nc2c1ncn2[C@@H]1O[C@H](COP(=O)(O)O)[C@@H](O)[C@@H]1O [Fludarabine de phosphate] | Activation [7] | Improved efficacy | –
COc1c(C)c2c(c(O[C@@H]3O[C@H](C(=O)O)[C@@H](O)[C@H](O)[C@H]3O)c1C/C=C(\C)CCC(=O)O)C(=O)OC2 [MPAG, mycophenolic acid glucuronide] | – | – | MPAG concentration in the MPA tubes incubated with stool microbiome samples (stool microbiota [1]; MPA arm, MPA to MPAG conversion, six, 24, 48 hours): no detectable concentrations; MPAG concentration in MPAG tubes incubated with stool microbiome samples (stool microbiota [1]; MPAG arm, one patient stool, anaerobic, six hours post incubation): rapid metabolism; also recorded: rapid decrease; MPAG concentration in control aliquots (stool microbiota [1]; MPAG in YCFA without stool, zero, six, 24, 48 hours): remained stable; MPAG to MPA conversion by gut microbiota (stool microbiota [1]; stool of five kidney transplant patients, YCFA, anaerobic, first six hours): Rapid metabolism; also recorded: high MPAG to MPA conversion; MPAG to MPA conversion in repeat assay (stool microbiota [3]): showed ability of the stool microbiome sample to metabolism MPAG to MPA as before
COc1c(C)c2c(c(O)c1C/C=C(\C)CCC(=O)OCCN1CCOCC1)C(=O)OC2 [Mycophenolate Mofetil (MMF), mycophenolate mofetil] | Toxicity [4-6] | – | –
NC(=O)c1cc(N2CC2)c([N+](=O)[O-])cc1[N+](=O)[O-] [CB1954] | Activation [7] | Improved efficacy | –
CCc1c2c(nc3ccc(OC(=O)N4CCC(N5CCCCC5)CC4)cc13)-c1cc3c(c(=O)n1C2)COC(=O)[C@]3(O)CC [Irinotecan] | Toxicity [1, 2] | – | –
Nc1nc(Cl)nc2c1ncn2[C@H]1C[C@H](O)[C@@H](CO)O1 [Cladribine] | Inactivation[7] | Inhibited efficacy | –
O=C(O)Cc1ccccc1Nc1c(Cl)cccc1Cl [Diclofenac] | Toxicity [2, 3] | – | –
Ipilimumab: Antil CTLA-4 human monoclonal antibody (Ab) therapeutic drug | – | – | Effect of microbial modification (Gut Microbiota): Activation [2, 10]
CC1=C(CC(=O)O)c2cc(F)ccc2/C1=C\c1ccc([S+](C)[O-])cc1 (stereo not shown) [Sulindac] | Toxicity [2, 4-6] | – | –
C=CC[C@@H]1/C=C(\C)C[C@H](C)C[C@H](OC)[C@H]2O[C@@](O)(C(=O)C(=O)N3CCCC[C@H]3C(=O)O[C@H](/C(C)=C/[C@@H]3CC[C@@H](O)[C@H](OC)C3)[C@H](C)[C@@H](O)CC1=O)[C@H](C)C[C@@H]2OC [Tacrolimus] | Inactivation [8] | – | –
Nc1ccn([C@@H]2O[C@H](CO)[C@@H](O)C2(F)F)c(=O)n1 [Gemcitabine] | Inactivation[7] | Inhibited efficacy | –
